Reference: patent US20070111258A1, “Compositions and methods for modulating the acute phase response” (priority 2005, published 2007)

Experiments:
CREBH = test: Cleavage of flag-tagged CREBH in transfected wild-type CHO cells (nuclear fraction Western blot); format: cell-based, Chinese hamster; conditions: Tm 5 μg/ml 10 hours
Procedure: FIG. 5 depicts the cleavage of CREBH by proteases S1P and S2P upon ER stress. (A) CREBH is cleaved by S1P-KDEL, but not S1P-KDAS. COS7 cells were co-transfected with a construct expressing flag-tagged full-length CREBH and a construct expressing S1P-KDAS or S1P-KDEL. CREBH construct DNA (1 μg) was mixed with S1P-KDEL or S1P-KDAS construct DNA (1 or 2 μg as indicated) for transfection of cells in one well of a 6-well plate. COS7 cells expressing full-length CREBH were also cultured in the absence or presence of 0.5 μM BFA for 8 hours. COS7 cells expressing CREBH-ΔC, the cytosolic/nuclear form of CREBH, were included as a positive control. Expression and cleavage of CREBH were detected by Western blot analysis using an anti-flag antibody. (B) Cleavage of CREBH in wild-type (K1), S2P-deficient (M19), and […] CHO cells. […]
For analysis of expression and cleavage of CREBH protein, total cell lysates were prepared from H2.35 cells or COS7 cells using Nonidet P-40 lysis buffer (1% NP-40, 50 mM Tris-HCl at pH 7.5, 150 mM NaCl, 0.05% SDS) supplemented with protease inhibitors (Complete Mini from Roche Applied Science), 0.1 mM sodium vanadate, and 1 mM sodium fluoride. […] The total cell lysate, membrane and nuclear fractions were subjected to SDS-PAGE and then analyzed by Western blot using anti-flag monoclonal antibody or other antibodies. […]

ApoB mRNA = test: Endogenous ApoB mRNA in mouse liver; format: in vivo; conditions: Tm 2 μg/gram body weight i.p.; liver at 24 hours
Procedure: C57BL/6J mice at 3-months of age were injected intraperitoneally with Tm (2 μg/gram body weight) in 150 mM dextrose solution. Mice were injected with the same volume of dextrose solution as a control. Liver tissue were collected from mice at 24 hours after injection for RNA isolation. Quantitative real-time RT-PCR was used to determine the ApoB and the spliced XBP1 mRNA levels. Fold changes of mRNA induction were determined after normalization of the mRNA levels to internal control 18S ribosomal RNA levels. Data points are fold changes of the ApoB or spliced XBP1 mRNA levels for individuals, n=5 mice per injection.

Question: Which “increase of the nuclear form of CREBH” value (CREBH) does the source give for tunicamycin [Tm] here?
Answer: The value was “approximately 6 fold”.

Question: And the “induction of endogenous ApoB mRNA in mice” value (ApoB mRNA)?
Answer: The value was “only slightly increased”.
